{"source": "patent US20040248769A1", "about": "“Enzyme inhibitors for inactivating allergens” (priority 2001, published 2004)", "key": {"[1]": {"tested_on": "Cat2 S1 fur extract proteolytic activity", "assay": "Proteolytic activity of fur extract against NHMec substrates", "type": "biochemical, cat", "details": "sample Cat2 S1, 5 μM substrate, 37° C., pH 7.5", "experimental": "(§1) A clean pet brush was used to brush three common English domestic cats. Fur from guinea pigs, rabbit, dogs and horse was collected in the same way. A different brush was used for each species and between brushings these were cleaned thoroughly in a denaturing detergent solution (Fairy® detergent) and then ethanol. The brushings were transferred to a sterile universal container and extracted by shaking in an extraction buffer, 50 mM Tris.HCl, 5 mM CaCl2, pH 7.5 (0.1 g/ml). The solution was recovered by centrifugation and stored at −20° C. in aliquots. Saliva was collected from a mastiff-type dog and stored frozen in aliquots until assayed. Sample aliquots were assayed for proteolytic activity using fluorometric blocked peptidylaminomethylcoumarylamide substrates in the cuvette of a Perkin Elmer fluorimeter at 37° C. The fluorimeter was standardised with a known concentration of methylcoumarin, and the assays were designed so that no more than 10% substrate hydrolysis occurred.\n(§2) Assays were performed in assay buffer; 50 mM Tris.HCl, 5 mM CaCl2, 0.1% CHAPS, pH 7.5. Data were collected in real-time on a personal computer using the Flusys software package.\n(§3) In the first series of experiments the sample (12 μl) was assayed against a range of serine and cysteine proteinase aminomethylcoumarylamide (NHMec) substrates (obtained commercially from Bachem) under standard conditions of 5 μM substrate concentration (from a 100-fold stock solution in dimethyl sulfoxide) to give a final volume of 120 μl. After addition of substrate the rate without sample was determined (which in all cases was zero), after which the sample was applied and the progress of the reaction was followed for a further 15 min. The slope obtained (fluorescence vs time) was analysed by linear regression and converted to rate of product formation (nM/min) see results table 2."}, "[2]": {"tested_on": "Cat1 S1 fur extract proteolytic activity", "assay": "Proteolytic activity of fur extract against NHMec substrates", "type": "biochemical, cat", "details": "sample Cat1 S1, 5 μM substrate, 37° C., pH 7.5", "experimental": "as §1, §2, §3"}, "[3]": {"tested_on": "Cat1 S3 fur extract proteolytic activity", "assay": "Inhibition of the proteolytic activity in animal fur by proteinase inhibitors", "type": "biochemical, cat", "details": "Cat1 S3, 10 μM inhibitor", "experimental": "(§4) […] The assay was begun with substrate and sample and a continuous rate of product formation (nM/min) was measured (v0) for 15 min. The inhibitor was added to a final concentration of 10 μM in negligible volume from stock solution in dimethyl sulfoxide. The assay was continued for a further 15 min.\n(§5) Under these conditions reversible inhibition can be measured as the new steady state (v1) with percentage inhibition being 1−(v1/v0)×100. Irreversible inhibition is measured as a second order rate constant and is time dependent but as long as the inhibitor is present in molar excess should always lead eventually to total inhibition. No distinction was made and inhibition is presented as a percentage of full activity. See results table 4."}, "[4]": {"tested_on": "G.pig2 S1 fur extract proteolytic activity", "assay": "Inhibition of the proteolytic activity in animal fur by proteinase inhibitors", "type": "biochemical, guinea pig", "details": "G.pig2 S1, 10 μM inhibitor, substrate 2 Z-Phe-Arg-NHMec", "experimental": "as §4, §5"}, "[5]": {"tested_on": "Dog2 S1 fur extract proteolytic activity", "assay": "Inhibition of the proteolytic activity in animal fur by proteinase inhibitors", "type": "biochemical, dog", "details": "Dog2 S1, 10 μM inhibitor, substrate 2 Z-Phe-Arg-NHMec", "experimental": "as §4, §5"}, "[6]": {"tested_on": "Horse1 S1 mane extract proteolytic activity", "assay": "Inhibition of the proteolytic activity in animal fur by proteinase inhibitors", "type": "biochemical, horse", "details": "Horse1 S1, 10 μM inhibitor, substrate 2 Z-Phe-Arg-NHMec", "experimental": "as §4, §5"}, "[7]": {"tested_on": "Horse1 S2 fur extract proteolytic activity", "assay": "Inhibition of the proteolytic activity in animal fur by proteinase inhibitors", "type": "biochemical, horse", "details": "Horse1 S2, 10 μM inhibitor, substrate 2 Z-Phe-Arg-NHMec", "experimental": "as §4, §5"}, "cat fur enzyme(s)": {"tested_on": "cat fur enzyme(s)", "assay": "Rates of cleavage at varying substrate concentration and Km", "type": "biochemical", "details": "for Rate: cat fur sample", "experimental": "as §3\nA rough estimate of the Km for the cleavage of Z-Gly-Gly-Arg-NHMec and of Z-Phe-Arg-NHMec by the cat fur enzyme(s) were determined using the same procedure with varying concentrations of these substrates see results table 3.\nAs the activity follows normal Michaelis-Menten kinetics it is clear that it is due to the activity of one or more biological catalysts or enzymes."}, "[8]": {"tested_on": "Cat1 S3 fur extract proteolytic activity", "assay": "Proteolytic activity of fur extract against NHMec substrates", "type": "biochemical, cat", "details": "sample Cat1 S3, 5 μM substrate, 37° C., pH 7.5", "experimental": "as §1, §2, §3"}, "[9]": {"details": "substrate 1 Z-Gly-Gly-Arg-NHMec"}}, "note": "“And” between values parts separate entries of the source, which are not always exact repeats. Identical values can stand only once. *1 amine or outer side, *2 acyl side, *3 side chain or, on linkers, in order; H or OH if unused. Where a SMILES comes first, the peptide text is derived from it. The star is where a group is joined. AMC = Cc1cc(=O)oc2cc(N*)ccc12; Suc = O=C(CCC(=O)[*:2])[*:1]; Bz = O=C(c1ccccc1)*", "data": [{"compound": "Cc1cc(=O)oc2cc(NC(=O)[C@H](CCCCN)NC(=O)[C@H](Cc3ccccc3)NC(=O)[C@H](C)NC(=O)CCC(=O)O)ccc12", "note": "[Suc-Ala-Phe-Lys-NHMec] (Suc-Ala-Phe-Lys-{AMC})", "values": [{"measurement": "Rate", "setting": "[1]", "result": "No activity"}, {"measurement": "Rate", "setting": "[2]", "result": "No activity"}]}, {"compound": "N=C(N)SCCCOc1oc(=O)c2cc(NC(=O)NCc3ccccc3)ccc2c1Cl", "note": "[PhCH2NHCONH-CiTPrOIC]", "values": [{"measurement": "% Inhibition", "setting": "[3]; substrate 2 Z-Phe-Arg-NHMec", "result": 100, "unit": "%"}, {"measurement": "v1 (rate after inhibitor)", "setting": "[3]; substrate 2 Z-Phe-Arg-NHMec", "result": 0, "unit": "nM/min"}]}, {"compound": "Cc1cc(=O)oc2cc(NC(=O)[C@@H](NC(=O)[C@@H]3CCCN3C(=O)[C@H](C)NC(=O)[C@H](C)NC(=O)CCC(=O)O)C(C)C)ccc12", "note": "[Suc-Ala-Ala-Pro-Val-NHMec] (Suc-AAPV-{AMC})", "values": [{"measurement": "Rate", "setting": "[1]", "result": "No activity"}, {"measurement": "Rate", "setting": "[2]", "result": "No activity"}]}, {"compound": "N=C(N)SCCCOc1oc(=O)c2cc(N)ccc2c1Cl", "note": "[ACITIC, 7-amino-4-chloro-3-(-3-isothiureido-propoxy) isocoumarin]", "values": [{"measurement": "% Inhibition", "setting": "[4]", "result": 94.8, "unit": "%"}, {"measurement": "v1 (rate after inhibitor)", "setting": "[4]", "result": 0.964, "unit": "nM/min"}, {"measurement": "% Inhibition", "setting": "[3]; [9]", "result": 100, "unit": "%"}, {"measurement": "v1 (rate after inhibitor)", "setting": "[3]; [9]", "result": 0.002, "unit": "nM/min"}, {"measurement": "% Inhibition", "setting": "[5]", "result": 71.2, "unit": "%"}, {"measurement": "v1 (rate after inhibitor)", "setting": "[5]", "result": 0.184, "unit": "nM/min"}, {"measurement": "% Inhibition", "setting": "[6]", "result": 100, "unit": "%"}, {"measurement": "v1 (rate after inhibitor)", "setting": "[6]", "result": 0, "unit": "nM/min"}, {"measurement": "% Inhibition", "setting": "[7]", "result": 100, "unit": "%"}, {"measurement": "v1 (rate after inhibitor)", "setting": "[7]", "result": 0, "unit": "nM/min"}]}, {"compound": "Cc1cc(=O)oc2cc(NC(=O)[C@H](C)NC(=O)[C@H](C)NC(=O)[C@H](C)NC(=O)CCC(=O)O)ccc12", "note": "[Suc-Ala-Ala-Ala-NHMec]", "values": [{"measurement": "Rate", "setting": "[1]", "result": "No activity"}, {"measurement": "Rate", "setting": "[2]", "result": "No activity"}]}, {"compound": "Cc1cc(=O)oc2cc(NC(=O)[C@H](CCCN=C(N)N)NC(=O)CNC(=O)CNC(=O)OCc3ccccc3)ccc12", "note": "[Z-Gly-Gly-Arg-NHMec]", "values": [{"measurement": "Rate", "setting": "cat fur enzyme(s); [Substrate] 5 μM", "result": 1.47, "unit": "nM/min"}, {"measurement": "Rate", "setting": "cat fur enzyme(s); [Substrate] 10 μM", "result": 2.42, "unit": "nM/min"}, {"measurement": "Rate", "setting": "cat fur enzyme(s); [Substrate] 20 μM", "result": 3.41, "unit": "nM/min"}, {"measurement": "Rate", "setting": "cat fur enzyme(s); [Substrate] 40 μM", "result": "4.82 nM/min and 8.84 nM/min"}, {"measurement": "Rate", "setting": "cat fur enzyme(s); [Substrate] 60 μM", "result": 10.01, "unit": "nM/min"}, {"measurement": "Rate", "setting": "cat fur enzyme(s); [Substrate] 80 μM", "result": 13.27, "unit": "nM/min"}, {"measurement": "Rate", "setting": "cat fur enzyme(s); [Substrate] 100 μM", "result": 11.40, "unit": "nM/min"}, {"measurement": "Rate", "setting": "cat fur enzyme(s); [Substrate] 125 μM", "result": 13.49, "unit": "nM/min"}, {"measurement": "Km", "setting": "cat fur enzyme(s); non-linear regression, Enzfitter, rough estimate", "result": "95 ± 47", "unit": "µM"}, {"measurement": "Rate", "setting": "[1]", "result": 1.35, "unit": "nM/min"}, {"measurement": "Rate", "setting": "[2]", "result": 0.87, "unit": "nM/min"}]}, {"compound": "Aprotinin", "values": [{"measurement": "% Inhibition", "setting": "[3]; [9]", "result": 89.6, "unit": "%"}, {"measurement": "v1 (rate after inhibitor)", "setting": "[3]; [9]", "result": 0.292, "unit": "nM/min"}]}, {"compound": "Cc1cc(=O)oc2cc(NC(=O)[C@H](CCCN=C(N)N)NC(=O)[C@@H](NC(=O)[C@H](Cc3ccccc3)NC(=O)c3ccccc3)C(C)C)ccc12", "note": "[Bz-Phe-Val-Arg-NHMec] (Bz-Phe-Val-Arg-{AMC})", "values": [{"measurement": "Rate", "setting": "[8]", "result": 32.1, "unit": "nM/min"}]}]}
